≈ marks a conversion by molar mass, not a printed value.
Legend:
Type in all cases: in vivo
[1] = system: 3rd-instar larvae of Agrotis ipsilon (Rottemberg); assay: Joint toxicity of I-72 + SYP-1620, fludioxonil, insect-dipping, Example 80, Table 80
Protocol: (§1) Preparation of the pesticide solution: according to different test requirements, the test samples were accurately weighed respectively with an electronic analytical balance. The technical pesticides were dissolved in acetone, and then diluted with 0.1% Tween 80 water into a series of pesticide solutions with a certain concentration gradient according to the experimental design dosage.
(§2) The target insects were dipped into the pesticide solution for 10 s and then taken out. Excess pesticide solution was absorbed with filter paper. […] A treatment without the pesticide was set as the blank control.
(§3) The number of dead and live insects was investigated 72 hours later. The corrected mortality rate was calculated using the Abbott's formula, and statistical analysis was performed with the DPS data processing software to obtain the toxicity regression equation and LC50 value of each single test pesticide and each mixture of different ratios.

[2] = system: Unaspis yanonensis Kuwana nymphs; assay: Joint toxicity of I-72 + afidopyropen, Example 76, Table 76; settings: A = compound I-72, B = afidopyropen; citrus leaf dipping; 120 hours
Protocol: Test target: Unaspis yanonensis Kuwana nymphs.
as §1
Experimental method: the activity of the mixture against Unaspis yanonensis Kuwana nymphs on citrus was determined by adopting the dipping method. First, the collected citrus leaves with Unaspis yanonensis Kuwana nymphs were treated with the pesticide solution in the order from low dosage to high dosage according to the experimental design. After air-drying, the petioles were kept moist with degreased cotton, and then the leaves were placed in a Petri dish, with 3 replicates for each treatment. In addition, a blank control was set up.
(§4) The treated test materials were placed in an observation room, and the temperature, humidity and illumination of the observation room could be adjusted as needed. The number of dead and live insects was investigated 120 hours later. […] Then, the co-toxicity coefficient of each ratio was calculated using the Sun Y-P method to evaluate the mixing effect (the same as in Example 1).

[3] = system: adult Tetranychus urticae Koch; assay: Joint toxicity of I-72 + cyetpyrafen, Example 85, Table 85; settings: A = compound I72, B = cyetpyrafen; potted-seedling spraying; 72 hours
Protocol: Test target: adult Tetranychus urticae Koch, a sensitive strain reared indoors.
as §1
(§5) Experimental method: the activity of the mixture against the adult Tetranychus urticae Koch was determined by adopting the potted-seedling spraying method. First, the adult Tetranychus urticae Koch of uniform size were transferred onto the leaves of kidney bean seedlings at the stage when the first pair of true leaves was fully expanded. After the adult mites had stabilized, the base number was counted. Then, the uniform spraying was performed with the pesticide solution in the order from low to high dose according to the experimental design, with 1.5 mL for each seedling and 3 replicates for each treatment. […]
as §4, with “needed.” for “needed. The number of dead and live insects was investigated 120 hours later.”

[4] = system: Thrips flavus Schrank nymphs; assay: Joint toxicity of I-72 + flonicamid, Example 78, Table 78; settings: A = compound I-72, B = flonicamid; eggplant seedling spraying; 48 hours
Protocol: Test target: Thrips flavus Schrank nymphs.
as §1
Experimental method: first, eggplant seedlings with Thrips flavus Schrank were selected, and the base number was counted. Then, uniform spraying was performed with the pesticide solution in the order from low to high doses according to the experimental design, with 2 mL for each seedling and 3 replicates for each treatment. In addition, a blank control was set up.
as §4, with “48” for “120”

[5] = system: Aphis gossypii Glover nymphs; assay: Joint toxicity of I-72 + flonicamid, Example 74, Table 74; settings: A = compound I-72, B = flonicamid; cotton leaf spraying; 48 hours
Protocol: Test target: Aphis gossypii Glover nymphs, a sensitive strain reared indoors.
as §1
(§6) Experimental method: first, cotton leaves with uniform and consistent Aphis gossypii were selected, with about 30-40 insects on each leaf. Then, they were evenly sprayed with the pesticide solution in the order from low dosage to high dosage according to the experimental design, with 1.5 mL for each leaf and 3 replicates for each treatment. In addition, a blank control was set up.
as §4, with “48” for “120”

[6] = system: 3rd-instar larvae of Agrotis ipsilon (Rottemberg); assay: whole plant or invertebrate; settings: A = compound I-72, B = metalaxyl-M; insect-dipping; 72 hours
Protocol: Test conditions: temperature: 24-26° C., humidity: RH 60%, and illumination: L:D=14:10
as §1, §2, §3

[7] = system: Aphis citricola van der Goot nymphs; assay: Joint toxicity of I-72 + nicotine, Example 72, Table 72; settings: A = compound I-72, B = nicotine, apple leaf spraying, 48 hours
Protocol: Test target: Aphis citricola van der Goot nymphs.
as §1
as §6, with “apple” for “cotton”, “citricola van der Goot” for “gossypii”
as §4, with “48” for “120”

[8] = system: 3rd-instar larvae of Ostrinia furnacalis Guenee; assay: Joint toxicity of I-72 + pymetrozine, Example 79, Table 79; settings: in Zea mays, 72 h
Protocol: Test target: 3rd-instar larvae of Ostrinia furnacalis Guenee.
as §1
Experimental method: first, tender corn stems were selected and dipped in the prepared pesticide solution for 10 s in the order from low dosage to high dosage according to the experimental design. After natural air-drying in the shade, they were placed in a 9-cm-diameter Petri dish with filter paper, and uniform and healthy test insects were introduced, with 10 insects for each treatment and 3 replicates for each treatment. In addition, a blank control was set up.
as §4, with “72” for “120”

[9] = system: Myzus persicae (Sulzer) nymphs; assay: Joint toxicity of I-72 + pymetrozine, Example 73, Table 73; settings: in Brassica oleracea, 48 h
Protocol: Test target: Myzus persicae (Sulzer) nymphs, a sensitive strain reared indoors.
as §1
as §6, with “cabbage” for “cotton”, “Myzus persicae (Sulzer)” for “Aphis gossypii”, “mL of the solution” for “mL”
as §4, with “48” for “120”, “effect,” for “effect (the same”, “1.” for “1).”

[10] = system: adult Bemisia tabaci (Gennadius); assay: Joint toxicity of I-72 + pyraclostrobin, cotton seedling spraying, Example 83, Table 83; settings: 72 h
Protocol: as §1
The corrected mortality rate was calculated using the Abbott's formula, and statistical analysis was performed with the DPS data processing software to obtain the toxicity regression equation and LC50 value of each single test pesticide and each mixture of different ratios.

[11] = system: adult Tetranychus cinnabarinus (Boisduval); assay: Joint toxicity of I-72 + pyridaben, Example 84, Table 84; settings: 72 h
Protocol: Test target: adult Tetranychus cinnabarinus (Boisduval), a sensitive strain reared indoors.
as §1
as §5, with “adult Tetranychus cinnabarinus (Boisduval) was determined” for “adult Tetranychus urticae Koch was determined”, “adult Tetranychus cinnabarinus of uniform” for “adult Tetranychus urticae Koch of uniform”
as §4, with “needed.” for “needed. The number of dead and live insects was investigated 120 hours later.”, “effect,” for “effect (the same”, “1.” for “1).”

[12] = system: Bemisia tabaci (Gennadius) nymphs; assay: Joint toxicity of I-72 + pyrifluquinazon, Example 77, Table 77; settings: A = compound I-72, B = pyrifluquinazon; cotton leaf-disk spraying; 96 hours
Protocol: (§7) Test target: Bemisia tabaci (Gennadius) nymphs, a sensitive strain reared indoors.
as §1
as §6, with “neat” for “uniform”, “Bemisia tabaci (Gennadius) nymphs” for “Aphis gossypii”, “selected and made into leaf disks,” for “selected,”, “20” for “30-40”, “leaf disk.” for “leaf.”
as §4, with “96” for “120”

[13] = system: Bemisia tabaci (Gennadius) nymphs; assay: Joint toxicity of I-72 + thiacloprid, Example 71, Table 71; settings: in Gossypium hirsutum, 96 h
Protocol: as §7, §1
as §6, with “neat” for “uniform”, “Bemisia tabaci (Gennadius) nymphs” for “Aphis gossypii”, “selected and made into leaf disks,” for “selected,”, “20” for “30-40”, “leaf disk.” for “leaf.”
as §4, with “96” for “120”

[14] = system: Nilaparvata lugens (Stal) nymphs; assay: Joint toxicity of I-72 + triflumezopyrim, Example 75, Table 75; settings: A = compound I-72, B = triflumezopyrim; potted-seedling spraying; 72 hours
Protocol: Test target: Nilaparvata lugens (Stal) nymphs, a sensitive strain reared indoors.
as §1
Experimental method: the activity of the mixture against the Nilaparvata lugens (Stal) nymphs was determined by adopting the potted-seedling spraying method. First, rice seedlings were planted in culture pots. Uniform spraying was performed with the pesticide solution in the order from low dosage to high dosage according to the experimental design, with 2 mL for each seedling. Then, Nilaparvata lugens nymphs of uniform size were transferred onto the rice seedlings, with 3 replicates for each treatment. In addition, a blank control was set up.
as §4, with “72” for “120”

**Q.** Which LC50 ([1]; A = compound I-72, B = SYP-1620, 72 hours) does the source give for `CNC(=O)/C(=N/OC)c1ccccc1CO/N=C(C)/C=C/c1c(Cl)cccc1Cl` [SYP-1620] here?
**A.** The LC50 was 361.2037 µg/mL.

**Q.** Which LC50 [2] does the source give for `C[C@]1(COC(=O)C2CC2)[C@@H]2C[C@H](O)[C@@]3(C)Oc4cc(-c5cccnc5)oc(=O)c4[C@H](O)[C@@H]3[C@@]2(C)CC[C@@H]1OC(=O)C1CC1` [afidopyropen] here?
**A.** Its LC50 is 2.8361 µg/mL.

**Q.** Which LC50 [3] does the source give for `CCn1nc(C)cc1/C(OC(=O)C(C)(C)C)=C(/C#N)c1ccc(C(C)(C)C)cc1` [cyetpyrafen] here?
**A.** The LC50 was 0.6118 µg/mL.

**Q.** Which results are given for `N#CCNC(=O)c1cnccc1C(F)(F)F` [flonicamid]?
**A.** LC50 [4]: 50.8013 µg/mL; LC50 [5]: 2.3954 µg/mL

**Q.** With `N#Cc1c[nH]cc1-c1cccc2c1OC(F)(F)O2` [fludioxonil] as the compound, how does the LC50 ([1]; Agrotis ipsilon, A = compound I-72, B = fludioxonil, 72 hours, read-out: LC50) read?
**A.** Its LC50 is 391 µg/mL.

**Q.** How did the LC50 [6] turn out when `COCC(=O)N(c1c(C)cccc1C)[C@H](C)C(=O)OC` [metalaxyl-M] was run?
**A.** The LC50 was 401.2975 µg/mL (≈ 1440 µM).

**Q.** For `CN1CCC[C@H]1c1cccnc1` [nicotine], which LC50 [7] is on record?
**A.** Its LC50 is 8.19 µg/mL.

**Q.** With `CC1=NNC(=O)N(/N=C/c2cccnc2)C1` [pymetrozine] as the compound, how does the LC50 [8] read?
**A.** Its LC50 is 300 µg/mL.

**Q.** And the LC50 [9]?
**A.** The LC50 was 5.51 µg/mL.

**Q.** Which LC50 [10] does the source give for `COC(=O)N(OC)c1ccccc1COc1ccn(-c2ccc(Cl)cc2)n1` [pyraclostrobin] here?
**A.** Its LC50 is 424 µg/mL.

**Q.** `CC(C)(C)c1ccc(CSc2cnn(C(C)(C)C)c(=O)c2Cl)cc1` [pyridaben] was tested. Which LC50 [11] did it give?
**A.** Its LC50 is 10.8 µg/mL.

**Q.** `CC(=O)N1C(=O)N(NCc2cccnc2)Cc2cc(C(F)(C(F)(F)F)C(F)(F)F)ccc21` [pyrifluquinazon] was tested. Which LC50 [12] did it give?
**A.** Its LC50 is 10.6205 µg/mL.

**Q.** How did the LC50 [13] turn out when `N#C/N=C1\SCCN1Cc1ccc(Cl)nc1` [thiacloprid] was run?
**A.** Its LC50 is 6.26 µg/mL.

**Q.** For `O=c1c(-c2cccc(C(F)(F)F)c2)c([O-])[n+](Cc2cncnc2)c2ccccn12` [triflumezopyrim], which LC50 [14] is on record?
**A.** Its LC50 is 0.8838 µg/mL.

— patent publication US20260198495A1, “BINARY INSECTICIDE COMPOSITION AND USE THEREOF” (SHENYANG SINOCHEM AGROCHEMICALS R & D CO., LTD., priority 2022, published 2026)
